Assay results reported in the CheMixHub viscosity set.

Test: xn = mol fraction of the nth substance listed

CN(C)c1ccccc1 + Cc1ccccc1
viscosity [mPa·s], 101 kPa
Settings	x1 = 0.1011	x1 = 0.1961	x1 = 0.3125	x1 = 0.4011	x1 = 0.493	x1 = 0.5974	x1 = 0.701	x1 = 0.8015	x1 = 0.8983
298.15 K	0.597	0.653	0.711	0.767	0.831	0.906	0.989	1.066	1.173
303.15 K	0.561	0.604	0.668	0.714	0.77	0.834	0.911	0.988	1.07
308.15 K	0.532	0.57	0.625	0.671	0.726	0.782	0.854	0.918	0.999
313.15 K	0.499	0.536	0.586	0.619	0.664	0.726	0.78	0.851	0.914

CCCC[P+](CC)(CC)CC.N#Cc1ccc[n-]1 + OCCN(CCO)CCO
293.15 K, 100 kPa
Settings	viscosity [mPa·s]
x1 = 0.018	956
x1 = 0.089	975
x1 = 0.104	937
x1 = 0.223	809
x1 = 0.413	679

[2H]O[2H] + [Cl-].[Li+]
viscosity [mPa·s], 101 kPa
Settings	x2 = 0.024	x2 = 0.076	x2 = 0.141	x2 = 0.197	x2 = 0.215
298.15 K	–	1.712	3.692	–	8.914
308.15 K	1.039	1.351	3.018	–	6.744
318.15 K	0.854	1.112	2.397	4.216	5.422

CN(C)c1ccccc1 + CCC(C)=O
viscosity [mPa·s], 101 kPa
Settings	303.15 K	308.15 K
x1 = 0.0689	0.487	0.438
x1 = 0.1256	0.574	0.516
x1 = 0.1905	0.671	0.605
x1 = 0.2652	0.776	0.701
x1 = 0.3256	0.853	0.773
x1 = 0.3905	0.926	0.84
x1 = 0.4621	0.993	0.905
x1 = 0.5362	1.048	0.958
x1 = 0.6058	1.086	0.997
x1 = 0.6753	1.113	1.025
x1 = 0.7416	1.129	1.045
x1 = 0.8056	1.14	1.06
x1 = 0.8826	1.149	1.076

CCC(C)(C)O + COc1ccccc1
viscosity [mPa·s], 101.33 kPa
Settings	x2 = 0.1	x2 = 0.2	x2 = 0.2997	x2 = 0.4001	x2 = 0.5007	x2 = 0.5997	x2 = 0.7012	x2 = 0.8005	x2 = 0.9
303.15 K	2.246	1.792	1.463	1.232	1.079	0.988	0.941	0.922	0.917
313.15 K	1.623	1.339	1.125	0.976	0.885	0.831	0.808	0.799	0.792
323.15 K	1.206	1.023	0.885	0.798	0.751	0.73	0.719	0.709	0.697

CCCCC(C)CC (centres undefined) + C1C[C@@H]2[C@H]3CC[C@H](C3)[C@@H]2C1
viscosity [mPa·s], 100 kPa
Settings	x2 = 0.0994	x2 = 0.2004	x2 = 0.2996	x2 = 0.4001	x2 = 0.5008	x2 = 0.5973	x2 = 0.6998	x2 = 0.8016	x2 = 0.8999
293.15 K	0.577	0.657	0.755	0.882	1.044	1.249	1.521	1.882	2.336
298.15 K	0.547	0.62	0.708	0.824	0.971	1.154	1.399	1.722	2.125
303.15 K	0.519	0.589	0.667	0.772	0.905	1.065	1.294	1.585	1.945
308.15 K	0.495	0.557	0.63	0.726	0.848	1	1.201	1.457	1.788
313.15 K	0.472	0.53	0.597	0.685	0.796	0.935	1.118	1.357	1.65

O=C1c2ccccc2C(=O)C1(O)O + C[N+](C)(C)CCO.[Cl-]
Settings	viscosity [mPa·s]
323.15 K, 100 kPa, x2 = 0.571	30500

Cn1ccnc1 + O
viscosity [mPa·s], 100 kPa
Settings	298.15 K	308.15 K	318.15 K
x1 = 0.0499	1.322	1.024	0.821
x1 = 0.0997	1.733	1.313	1.031
x1 = 0.1496	2.155	1.611	1.239
x1 = 0.1996	2.583	1.893	1.451
x1 = 0.2991	3.413	2.423	1.806
x1 = 0.3993	3.978	2.789	2.034
x1 = 0.499	4.032	2.846	2.094
x1 = 0.5989	3.653	2.644	1.983
x1 = 0.6996	3.103	2.278	1.772
x1 = 0.7996	2.561	1.974	1.579
x1 = 0.8493	2.337	1.829	1.491
x1 = 0.8988	2.136	1.673	1.388
x1 = 0.9496	1.96	1.557	1.309

CCCCN(CCCC)CCCC + C1CCCCC1
viscosity [mPa·s], 101 kPa
Settings	303.15 K	313.15 K
x1 = 0.0103	0.8168	0.7154
x1 = 0.0216	0.816	0.7139
x1 = 0.03178	0.8153	0.7132
x1 = 0.04023	0.8141	0.7121
x1 = 0.05159	0.8132	0.7111
x1 = 0.05978	0.8121	0.7102
x1 = 0.0709	0.8113	0.709
x1 = 0.0807	0.81	0.7078
x1 = 0.08607	0.8086	0.7065
x2 = 0.1133	1.125	–
x2 = 0.1972	1.125	–
x2 = 0.402	1.021	–
x2 = 0.499	0.987	–
x2 = 0.5952	0.951	–
x2 = 0.7042	0.911	–
x2 = 0.8018	0.875	–
x2 = 0.9005	0.845	–

CC(=O)CC(C)=O + CS(C)=O
303.15 K, 101 kPa
Settings	viscosity [mPa·s]
x2 = 0.1118	0.819
x2 = 0.2207	0.9187
x2 = 0.3269	1.032
x2 = 0.4303	1.117
x2 = 0.5312	1.209
x2 = 0.6296	1.302
x2 = 0.7256	1.427

CCCCOC(=O)c1ccccc1C(=O)OCCCC + CCO
303.15 K, 101.33 kPa
Settings	viscosity [mPa·s]
x1 = 0.0982	1.555
x1 = 0.1991	2.302
x1 = 0.4046	4.211
x1 = 0.5046	5.31
x1 = 0.5634	6.002
x1 = 0.694	7.761
x1 = 0.807	9.476
x1 = 0.8877	10.91
x1 = 0.9316	11.68

CCC(C)(C)O + CC#N
298.15 K, 101 kPa
Settings	viscosity [mPa·s]
x1 = 0.1002	0.387
x1 = 0.1989	0.45
x1 = 0.2988	0.543
x1 = 0.3988	0.667
x1 = 0.4964	0.832
x1 = 0.6004	1.069
x1 = 0.6969	1.375
x1 = 0.7994	1.832
x1 = 0.8983	2.493
x1 = 0.958	3.032

CCC(C)(C)O + CCC(C)=O
Settings	viscosity [mPa·s]
293.15 K, 101 kPa, x2 = 0.2341	2.105

COC(C)OC + CC1COC(=O)O1
298.15 K, 101 kPa
Settings	viscosity [mPa·s]
x2 = 0.1205	4.91
x2 = 0.2621	6.2
x2 = 0.3779	7.53
x2 = 0.4836	9.05
x2 = 0.7185	13.82

[2H]O[2H] + Cc1cccnc1
viscosity [mPa·s], 101 kPa
Settings	x2 = 0.0233	x2 = 0.05084	x2 = 0.08428	x2 = 0.1255
297.15 K	1.471	1.954	2.315	2.706
298.15 K	1.433	1.899	2.249	2.627
299.15 K	1.389	1.846	2.189	2.558
300.15 K	1.355	1.794	2.122	2.483
301.15 K	1.32	1.751	2.059	2.401
302.15 K	1.284	1.7	1.999	2.33
303.15 K	1.254	1.656	1.949	2.267
304.15 K	1.225	1.615	1.893	2.2
305.15 K	1.191	1.578	1.843	2.14
306.15 K	1.165	1.538	1.793	2.083
307.15 K	1.136	1.502	1.751	2.033
308.15 K	1.104	1.467	1.708	1.981
309.15 K	1.082	1.434	1.665	1.932
310.15 K	1.055	1.404	1.631	1.889
311.15 K	1.034	1.371	1.589	1.841
312.15 K	1.007	1.344	1.555	1.804
313.15 K	0.984	1.32	1.522	1.765

[2H]O[2H] + [Cl-].[K+]
viscosity [mPa·s], 101 kPa
Settings	x2 = 0.005	x2 = 0.01	x2 = 0.022	x2 = 0.04	x2 = 0.064
298.15 K	1.095	1.08	1.076	1.089	1.101
308.15 K	0.868	0.859	0.871	0.889	0.912
318.15 K	0.714	0.709	0.732	0.755	0.784

CCC(C)(C)O + CCCCCO
viscosity [mPa·s], 101 kPa
Settings	298.15 K	318.15 K
x2 = 0.051	3.666	1.715
x2 = 0.1017	3.812	1.782
x2 = 0.2023	4.096	1.867
x2 = 0.3041	4.309	1.974
x2 = 0.4034	4.432	2.058
x2 = 0.4972	4.456	2.122
x2 = 0.5939	4.415	2.167
x2 = 0.6991	4.251	2.195
x2 = 0.8003	4.112	2.187
x2 = 0.9012	3.939	2.174
x2 = 0.9496	3.831	2.161

CC(=O)CC(C)=O + CCO
303.15 K, 101 kPa
Settings	viscosity [mPa·s]
x1 = 0.05	0.896
x1 = 0.0997	0.825
x1 = 0.3	0.702
x1 = 0.5	0.655
x1 = 0.6989	0.644
x1 = 0.9	0.651
x1 = 0.948	0.657

CC1CCC(O)CC1 (centres undefined) + c1ccccc1
293.15 K, 101 kPa
Settings	viscosity [mPa·s]
x2 = 0.33	5.3
x2 = 0.5	2.4
x2 = 0.6	1.8
x2 = 0.667	1.6
x2 = 0.75	1.4
x2 = 0.8	1.3

O=C1c2ccccc2C(=O)C1(O)O + CCCCCCCCCO
101.3 kPa, x1 = 0.25
Settings	viscosity [mPa·s]
293.15 K	38.14
298.15 K	27.87
303.15 K	21.73
308.15 K	17.37
313.15 K	13.74
318.15 K	11.01
323.15 K	9.139

CN(C)c1ccccc1 + O=[N+]([O-])c1ccccc1
298.15 K, 101 kPa
Settings	viscosity [mPa·s]
x2 = 0.1239	1.337
x2 = 0.2063	1.355
x2 = 0.5628	1.488
x2 = 0.6512	1.565
x2 = 0.8325	1.702
x2 = 0.9168	1.766

CCCCN(CCCC)CCCC + CCCCCCCO
viscosity [mPa·s], 101.3 kPa
Settings	x1 = 0.1067	x1 = 0.1877	x1 = 0.2841	x1 = 0.4197	x1 = 0.5183	x1 = 0.619	x1 = 0.7191	x1 = 0.8008	x1 = 0.89
303.15 K	4.133	3.677	3.178	2.558	2.191	1.881	1.644	1.482	1.328
313.15 K	3.033	2.69	2.355	1.956	1.709	1.497	1.33	1.217	1.1

C=CC#N + CCCCOC(C)=O
viscosity [mPa·s]
Settings	298.15 K	303.15 K	308.15 K
101.3 kPa, x1 = 0.0988	–	0.6248	–
101.3 kPa, x1 = 0.2033	–	0.5998	–
101.3 kPa, x1 = 0.3022	–	0.5737	–
101.3 kPa, x1 = 0.401	–	0.5437	–
101.3 kPa, x1 = 0.4962	–	0.5133	–
101.3 kPa, x1 = 0.5941	–	0.4775	–
101.3 kPa, x1 = 0.6991	–	0.4364	–
101.3 kPa, x1 = 0.7966	–	0.3951	–
101.3 kPa, x1 = 0.8992	–	0.3527	–
101.33 kPa, x1 = 0.099	0.651	0.607	0.571
101.33 kPa, x1 = 0.1971	0.626	0.582	0.547
101.33 kPa, x1 = 0.2999	0.596	0.553	0.522
101.33 kPa, x1 = 0.404	0.561	0.524	0.494
101.33 kPa, x1 = 0.5006	0.526	0.49	0.464
101.33 kPa, x1 = 0.5992	0.488	0.458	0.433
101.33 kPa, x1 = 0.7004	0.449	0.421	0.398
101.33 kPa, x1 = 0.8014	0.412	0.384	0.365
101.33 kPa, x1 = 0.9031	0.374	0.349	0.33
